*1 amine or outer side, *2 acyl side, *3 side chain or, on linkers, in order; H or OH if unused. Where a SMILES comes first, the peptide text is derived from it. Side-chain parts run from the residue outwards. The star is where a group is joined. γGlu = O=C(O)[C@H](CCC(=O)[*:2])N[*:1]; Palmitoyl = CCCCCCCCCCCCCCCC(=O)*
Assays:
[1] = test system: normal cells derived from humans or mouse; assay: MTT growth inhibition in normal cells; type: cell-based, human; details: concentrations up to 10 µM
Text: Figure S3. Anticancer effect of Pep #5-2 truncated and substitution mutants
A) Names and peptide sequences of each mutant. Peptides corresponding to each Pep #5-2 truncated or substitution mutant are linked to a cell penetration peptide, iRGD (highlighted with yellow boxes). B-E) Cell growth inhibition profiles and GI50 values of each mutant in representative cancer cell lines. GI50 values estimated from duplicated data are expressed as means ± SD . Data are presented as means ± SD of two independent biological replicates. Anticancer effect of ACP52C, ACP52-51C, ACP52-52C, and ACP52-4C (B), amino acid substitution mutants of ACP52 -4C (C), and ACP52C, ACP52-4C, ACP52-31C, and ACP52-32C (D). Cell growth inhibition was teste d in cells using MTT assay over peptide dose at 48 h after peptide treatment, and GI50 values estimated from duplicated data are expressed as means ± SD. ( E) Summary of GI50 values of each mutant in representative cancer cell lines. GI 50 values estimated from duplicated data are expressed as means ± SD. Two-tailed unpaired Student’s t-tests, ***P < 0.001; ns: non-significant. […]

[2] = test system: normal male and female mice; assay: In vivo toxicity test of ACP52C; design: species or system mouse; details: ICR mice, 100 or 1000 mg kg^−1 intravenously, once or twice with four‐day interval; H&E of major organs
Method: To assess the toxicity of ACP52C, twelve 6‐weeks‐old ICR mice (six males and six females) were divided into three groups, each containing two mice: one group received a saline, another received 100 mg kg^−1 of ACP52C, and the third received 1000 mg kg^−1 of ACP52C. For each group, one mouse was intravenously injected once, and the other one was intravenously injected twice with a four‐day interval between injections. At the time of sacrifice, major organs were analyzed by H&E staining. To assess the repeated toxicity of ACP52CGK, twenty‐four 6‐weeks‐old ICR mice (twelve males and twelve females) were used, dividing them into two groups of six mice each: one group received saline, and the other received 100 mg kg^−1 of ACP52CGK. […] Body weight, water and feed consumption were measured every 3 days after injection. […] Major organs were weighed and analyzed by H&E staining. H&E‐stained tissue sections were analyzed and photographed, and the representative histological images were recorded. […]
A-C) Anticancer effects of ACP52C in xenograft model mice. […] Data are expressed as means ± SD, and the number […]
effective tumor targeting. […] The estimated residual levels of Cy5-ACP52C in the body over time were determined by quantifying the fluorescence intensity of images (right). RL50 represents the required time for a 50% retention of fluorescence level. (F) Bright field and fluorescence images of the […]

[3] = test system: diethylnitrosamine (DEN)‐induced orthotopic liver cancer; assay: DEN‐induced orthotopic liver cancer mouse model; type: in vivo; details: administered at five‐day intervals, C57BL/6 mice

SMILES | growth inhibition [1] | adverse side effects [2] | anti‐tumor efficacy [3]
CC(=O)N[C@@H](CC(N)=O)C(=O)N[C@@H](Cc1ccc(O)cc1)C(=O)N1CCC[C@H]1C(=O)N[C@@H](CCC(N)=O)C(=O)N[C@@H](CCCNC(=N)N)C(=O)N1CCC[C@H]1C(=O)N[C@@H](CS)C(=O)N[C@@H](CCCNC(=N)N)C(=O)NCC(=O)N[C@@H](CC(=O)O)C(=O)N[C@@H](CCCCN)C(=O)NCC(=O)N1CCC[C@H]1C(=O)N[C@@H](CC(=O)O)C(=O)N[C@@H](CS)C(N)=O [ACP52C] (Ac-NYPQRPCRGDKGPDC-NH2) | did not show any growth inhibition | did not exhibit any adverse side effects | 
CCCCCCCCCCCCCCCC(=O)N[C@@H](CCC(=O)NCCCC[C@H](NC(=O)CNC(=O)CNC(=O)[C@@H]1CCCN1C(=O)[C@H](CCCNC(=N)N)NC(=O)[C@H](CCC(N)=O)NC(=O)[C@@H]1CCCN1C(=O)[C@H](Cc1ccc(O)cc1)NC(=O)[C@H](CC(N)=O)NC(C)=O)C(=O)NCC(=O)NCC(=O)N[C@@H](CS)C(=O)N[C@@H](CCCNC(=N)N)C(=O)NCC(=O)N[C@@H](CC(=O)O)C(=O)N[C@@H](CCCCN)C(=O)NCC(=O)N1CCC[C@H]1C(=O)N[C@@H](CC(=O)O)C(=O)N[C@@H](CS)C(N)=O)C(=O)O [ACP52CGK] (Ac-NYPQRPGGK([γGlu-Palmitoyl])GGCRGDKGPDC-NH2) |  |  | remarkable anti‐tumor efficacy

— PMC10667816, “A Cell‐Penetrant Peptide Disrupting the Transcription Factor CP2c Complexes Induces Cancer‐Specific Synthetic Lethality” (Advanced Science, 2023)
